# Reference: patent US10064844B2, “Pharmaceutical compositions comprising an aromatse inhibitors” (MEREO BIOPHARMA 2 LIMITED, priority 2011, dated 2018)
# Legend:
# [1] = Pharmacokinetics after oral administration to rats; format: in vivo
# [2] = test system: androstenedione-induced uterine hypertrophy; test: Inhibition of androstenedione-induced uterine hypertrophy in rats (aromatase dependent model); format: in vivo; conditions: Rattus norvegicus
# [3] = test system: DMBA-induced mammary tumors; test: Inhibition of DMBA-induced mammary tumors in rats (aromatase dependent model); format: in vivo; conditions: Rattus norvegicus
# [4] = Single ascending dose study in pre- and post-menopausal women: pharmacokinetics; format: in vivo, human
# Excerpt: (§1) A […] (MTD) was not reached. […] Table 4 presents the PK parameters based on preliminary analysis of the concentration-time profile obtained from this study.
# [5] = test system: estrone, estrone sulfate and estradiol; test: Single ascending dose study in women: pharmacodynamics (estrogen suppression); format: in vivo, human
# Procedure: Patients received either 0.1 mg, 1 mg, and 10 mg drug substance containing hard gelatin capsules as described in Example 2 or appropriate matching placebo capsules.
# as §1
# (§2) There were no changes in bone density by DEXA after 6 months.
# [6] = test system: other enzymes involved in steroid hormone synthesis or metabolism; test: Single ascending dose study in women: other steroid hormone enzymes and hormone levels; format: in vivo, human; conditions: single doses
# [7] = Single ascending dose study in women: safety and tolerability; format: in vivo
# Excerpt: as §1, §2
# [8] = Solid state properties of the drug substance (hygroscopicity, water solubility); format: physicochemical; conditions: crystalline powder
smiles,measurement,setting,value
"N#Cc1ccc(C(F)(c2ccc(C#N)cc2)n2cncn2)cc1 [CGP47645, 4,4′-[fluoro-(1-H-1,2,4-triazol-1-yl)methylene]bisbenzonitrile]",exposure expressed as AUC versus dose,[1],proportional to the administered dose
same,ED50,[2],3 µg/kg
same,ED50,[3],10 µg/kg
same,difference in pharmacokinetics between post- and pre-menopausal women,[4]; 0.1 mg cohorts,No differences
same,Tmax,"[4]; female, human, in vivo",0.5 to 2 h
same,half-life,"[4]; female, human, in vivo",552 to 648 h
same,median Tmax,"[4]; female, human, in vivo",≤ 1 h
same,"AUC(0-tlast), mean","[4]; female, human, in vivo, 0.1 mg",116.2 ng·h/mL
same,"Cmax, mean","[4]; female, human, in vivo, 0.1 mg",1.7 ng/mL
same,"T1/2, mean","[4]; female, human, in vivo, 1 mg",538 h
same,"T1/2, mean","[4]; female, human, in vivo, 20 mg",646 h
same,Tmax,"[4]; female, human, in vivo, po, 0.03 mg",0.6 h
same,dose proportionality of pharmacokinetics (Cmax & AUC),"[4]; human, in vivo",dose proportional pharmacokinetics
same,half life in humans compared with letrozole,"[4]; human, in vivo",longer half life in humans than does letrozole
same,inter-subject variability,"[4]; single doses, women",10-30%
same,lowest single dose at which maximal estrogen suppression was observed,"[5]; post-menopausal women, chemiluminescence or radioimmunoassay",0.1 mg
same,lowest single dose at which transient estrogen suppression was seen,[5]; postmenopausal women,0.01 mg
same,inhibition of other enzymes involved in steroid hormone synthesis or metabolism,[6],No inhibition
same,changes in bone density by DEXA,[7]; in vivo,no changes
same,minimal toxic dose (MTD),"[7]; single doses 0.01 mg through 20 mg, women",not reached
same,solubility in water,[8],poorly soluble in water
